# Like-named read-outs stand apart in the source and are kept apart here.
# How the values were obtained:
# Type in all cases: in vivo
# Nilaparvata lugens = Nilaparvata lugens killing activity test; conditions: 144 h, active ingredient 500 ppm, dipped paddy, second instar larvae, after 6 days, 25° C., read-out: insect mortality
# Experimental: The water-dispersible powder prepared in accordance with Formulation example 2 was diluted in water so that the concentration of the active ingredient was 500 ppm. Paddy was dipped in this liquid agent, and then put into a plastic cup. Ten second instar larvae of Nilaparvata lugens were released in the plastic cup, and the cup was lidded, and placed in a thermostatic chamber at 25° C. After 6 days, the number of live insects was counted, and the insect mortality was determined by the calculation formula of numerical formula 1. The test was conducted singly.
# Helicoverpa armigera = Helicoverpa armigera killing test; conditions: 144 h, active ingredient 500 ppm, dipped cabbage leaf, newly hatched larvae, after 6 days, 25° C., read-out: insect mortality
# Experimental: (§1) The water-dispersible powder prepared in accordance with Formulation example 2 was diluted in water so that the concentration of the active ingredient was 500 ppm. A cabbage leaf was dipped in this liquid agent, and air-dried, and then put into a plastic cup. Five newly hatched larvae of Helicoverpa armigera were released in the cup, and the cup was lidded. Then, the cup was placed in a thermostatic chamber at 25° C., and the number of dead insects was examined after 6 days, and the insect mortality was determined by the calculation formula of numerical formula 1. The test was conducted in duplicate.
# Aphis gossypii = Aphis gossypii killing test; conditions: read-out: insect mortality
# Experimental: The water-dispersible powder prepared in accordance with Formulation example 2 was diluted in water so that the concentration of the active ingredient was 500 ppm. A nursery plant of cucumber preliminarily inoculated with nymphs of Aphis gossypii was dipped in this liquid agent, and air-dried. The nursery plant of cucumber after the treatment was placed in a thermostatic chamber at 25° C., and the number of live insects was counted after 3 days, and the insect mortality was determined by the calculation formula of numerical formula 1. The test was conducted singly.
# Plutella xylostella = Plutella xylostella killing test; conditions: 144 h, active ingredient 500 ppm, dipped cabbage leaf, second instar larvae, after 6 days, 25° C., read-out: insect mortality
# Experimental: as §1, with “Ten second instar” for “Five newly hatched”, “Plutella xylostella” for “Helicoverpa armigera”, “singly.” for “in duplicate.”
# [1] = active ingredient 500 ppm, dipped cucumber nursery plant inoculated with nymphs, after 3 days, 25° C.
Structure (SMILES),mortality at 500 ppm (Nilaparvata lugens) [%],mortality at 500 ppm (Helicoverpa armigera) [%],mortality at 500 ppm (Aphis gossypii; [1]) [%],mortality at 500 ppm (Plutella xylostella) [%],mortality at 500 ppm (Aphis gossypii; in Cucumis sativus) [%]
"Cc1ccccc1-c1cn(-c2cccnc2)nc1C(N)=O [A-0020, 1-(pyridine-3-yl)-4-(2-methylphenyl)-1H-pyrazole-3-carboxamide]",≥ 50,≥ 50,≥ 50,≥ 50,
"CCOC(=O)c1nn(-c2cccnc2)cc1I [D-0003, ethyl 4-iodo-1-(pyridine-3-yl)-1H-pyrazole-3-carboxylate]",,≥ 50,≥ 50,,
"COCC(=O)NC(=O)c1nn(-c2cccnc2)cc1-c1ccccc1C [A-4808, N-(2-methoxyacetyl)-1-(pyridine-3-yl)-4-(2-methylphenyl)-1H-pyrazole-3-carboxamide]",≥ 50,,≥ 50,,
"CCOC(=O)c1nn(-c2cccnc2)cc1-c1ncccc1C [D-0035, Ethyl 4-(3-methylpyridine-2-yl)-1-(pyridine-3-yl)-1H-pyrazole-3-carboxylate]",≥ 50,≥ 50,≥ 50,≥ 50,
"Cc1ccncc1-c1cn(-c2cccnc2)nc1C(N)=O [B-0100, 4-(4-methylpyridine-3-yl)-1-(pyridine-3-yl)-1H-pyrazole-3-carboxamide]",≥ 50,≥ 50,,≥ 50,
"CCOC(=O)c1nn(-c2cccnc2)cc1-c1cnccc1C [D-0108, Ethyl 4-(4-methylpyridine-3-yl)-1-(pyridine-3-yl)-1H-pyrazole-3-carboxylate]",,≥ 50,≥ 50,≥ 50,
"CCOC(=O)c1nn(-c2cccnc2)cc1OS(=O)(=O)C(F)(F)C(F)(F)C(F)(F)C(F)(F)F [D-0008, Ethyl 4-{[(nonafluorobutyl)sulfonyl]oxy}-1-(pyridine-3-yl)-1H-pyrazole-3-carboxylate]",,,,,≥ 50
"Cc1ccncc1-c1cn(-c2cccnc2)nc1C(=O)O [F-0108, 4-(4-methylpyridine-3-yl)-1-(pyridine-3-yl)-1H-pyrazole-3-carboxylic acid]",,≥ 50,,≥ 50,
"CCOC(=O)c1nn(-c2cccnc2)cc1-c1ccc(Cl)cc1OC [C-0634, Ethyl 4-(4-chloro-2-methoxyphenyl)-1-(pyridine-3-yl)-1H-pyrazole-3-carboxylate]",,,,≥ 50,
"CCOC(=O)c1nn(-c2cccnc2)cc1-c1ccccc1C(F)(F)F [C-0044, Ethyl 1-(pyridine-3-yl)-4-(2-(trifluoromethyl)phenyl)-1H-pyrazole-3-carboxylate]",≥ 50,,≥ 50,,
"Cc1cccnc1-c1cn(-c2cccnc2)nc1C(N)=O [B-0027, 4-(3-methylpyridine-2-yl)-1-(pyridine-3-yl)-1H-pyrazole-3-carboxamide]",≥ 50,≥ 50,≥ 50,≥ 50,
"Cc1ccccc1-c1cn(-c2cccnc2)nc1C(N)=S [A-8646, 1-(pyridine-3-yl)-4-(2-methylphenyl)-1H-pyrazole-3-carbothioamide]",≥ 50,,,≥ 50,
"Cc1ccccc1-c1cn(-c2ccc[n+]([O-])c2)nc1C(N)=O [A-8862, 3-[3-carbamoyl-4-(2-methylphenyl)-1H-pyrazole-1-yl]pyridine-1-oxide]",≥ 50,,≥ 50,,
"NC(=O)c1nn(-c2cccnc2)cc1-c1ccccc1C(F)(F)F [A-0044, 1-(pyridine-3-yl)-4-[2-(trifluoromethyl)phenyl]-1H-pyrazole-3-carboxamide]",,,≥ 50,,
"COc1cc(Cl)ccc1-c1cn(-c2cccnc2)nc1C(N)=O [A-0634, 4-(4-chloro-2-methoxyphenyl)-1-(pyridine-3-yl)-1H-pyrazole-3-carboxamide]",≥ 50,≥ 50,≥ 50,≥ 50,
